Experiments:
[1] = target: uridine phosphorylase; details: salvage pathway; cited from earlier work
[2] = target: T1, ODCase (Rattus norvegicus, UniProt A0ACM8Q7Z8); details: rat brain tissue; cited from earlier work
T1 construct: host or cells: rat brain tissue

[3] = target: T2, dihyroorotate dehydrogenase (DHOD) (Rattus norvegicus, UniProt Q63707); details: rat brain tissue; cited from earlier work
T2 construct: host or cells: rat brain tissue

[4] = system: OPRTase/ODCase; assay: In vitro enzymatic conversion of [14C]-orotate to UMP, cell free extract from corn root tissue; assay type: biochemical
Description: Etiolated corn roots and shoots or soybean suspension cells were used as tissue. Corn seedlings were germinated on vermiculite for 4 days in the dark at 26_C. and roots and shoots harvested separately. The soybean cells were grown in media consisting of Muashige and Skoog salts (Physiol. Plant (1962) 15:473-497) purchased from Gibco/BRL, vitamins (glycine 2 mg/L, thiamine 0.1 mg/L, nicotinic acid 0.5 mg/L, pyridoxine-HCl 0.5 mg/L), myo-inositol (100 mg/L), 2,4-D ([…]), and 30 g/L sucrose. Cell cultures are grown at 25° C. with gentle shaking. Cultures were transfered every 7 days to new growth media.
Approximately 5-10 g plant tissue were ground in liquid nitrogen and resuspended in 1:2 (w/v) homogenization buffer (30 mM KPO4^−; 25 mM […], 5 mM MgCl2, 5 mM ascorbic acid, pH 7.2). The homogenate was centrifuged at 10,000 g for 20 min, and the supernatant desalted using BioRad columns. The desalted supernatant was used for OPRTase/ODCase enzyme assays. For DHOD enzyme extraction, the supernatant was further centrifuged at 100,000 g for 45 min to obtain a microsomal pellet. The microsomal pellet was resuspended in 3-4 ml resuspension buffer (70 mM Tris-base, pH 7.4) containing 1% Triton X-100.
All enzyme assays were performed according to Rawls, J. M. (1978) Anal. Biochem. 86 (1): 107-117 and Cleaveland et al. (1995). Biochem. Pharm. 49(7):947-954. Enzyme assays were performed in a total volume of 200 ul with 1 uM [^14C]carbamoyl aspartate, [^14C]dihydroorotate or [^14C]orotate as substrates, and 1-5 mM probe compound or barbiturate as inhibitors. The [^14C]carbamoyl aspartate and [^14C]dihydroorotate assay was performed using a potassium phosphate buffer, pH 7.4 with 12 mM NAD^+, and 10 mM MgCl2. […] Over time, 25 ul aliquots were taken from the reaction tube and boiled for 5 min to stop the reaction. Samples were spotted onto cellulose TLC plates and run using 0.1 M potassium phosphate buffer, 100% ammonium sulfate, and 1-propanol (10:6:1). Plates were developed using a TLC plate radioisotope detector. Orotate and UMP standards were run next to unknowns to identify the conversion of [^14C]orotate to [^14C]UMP in the enzyme assay.

[5] = system: whole plant; assay: Whole plant injury by barbiturate; details: in vivo
[6] = target: T3, OPRTase (Rattus norvegicus, UniProt A0ACM8Q7Z8); details: rat brain tissue; cited from earlier work
T3 construct: host or cells: rat brain tissue
T3 sequence (A0ACM8Q7Z8 1-481): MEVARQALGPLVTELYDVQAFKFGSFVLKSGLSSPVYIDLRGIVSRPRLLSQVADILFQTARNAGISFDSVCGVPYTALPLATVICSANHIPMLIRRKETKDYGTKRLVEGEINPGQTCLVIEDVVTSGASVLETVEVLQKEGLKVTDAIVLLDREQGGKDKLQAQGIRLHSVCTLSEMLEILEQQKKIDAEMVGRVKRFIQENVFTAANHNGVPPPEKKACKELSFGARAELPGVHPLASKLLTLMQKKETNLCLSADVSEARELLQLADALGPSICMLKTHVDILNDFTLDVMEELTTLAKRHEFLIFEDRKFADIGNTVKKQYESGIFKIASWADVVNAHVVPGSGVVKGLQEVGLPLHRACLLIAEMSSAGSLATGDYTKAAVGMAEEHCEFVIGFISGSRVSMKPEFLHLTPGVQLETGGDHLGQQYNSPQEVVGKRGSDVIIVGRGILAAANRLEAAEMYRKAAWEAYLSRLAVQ

T2 sequence (Q63707 whole entry): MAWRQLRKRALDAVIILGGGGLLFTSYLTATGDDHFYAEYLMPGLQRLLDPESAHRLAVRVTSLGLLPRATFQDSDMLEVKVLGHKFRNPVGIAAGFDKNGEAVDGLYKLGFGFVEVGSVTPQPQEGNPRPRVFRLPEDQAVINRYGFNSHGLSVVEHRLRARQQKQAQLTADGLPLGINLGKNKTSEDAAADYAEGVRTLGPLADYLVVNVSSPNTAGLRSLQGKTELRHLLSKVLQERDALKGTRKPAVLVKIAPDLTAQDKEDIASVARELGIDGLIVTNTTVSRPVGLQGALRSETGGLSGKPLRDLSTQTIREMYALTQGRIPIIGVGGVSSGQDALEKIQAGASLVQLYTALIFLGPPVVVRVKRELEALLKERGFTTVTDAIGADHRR

For `O=C1CC(=O)NC(=O)N1` [barbiturate, reference compound], the Ki [1] is given as 786 µM, the Ki [2] is given as 75 µM and the Ki [3] is given as 412 µM. For the same compound, the “inhibition of the conversion of orotic acid to UMP” value ([4]; 1 mM) was 80%, the “inhibition of the conversion of orotic acid to UMP” value ([4]; 2 mM) was 100% and the “radiolabeled orotate converted to UMP” value ([4]; 15 minutes after treatment, 100 μM PRPP, untreated control 55%) was 20%. The “inhibition of the conversion of [14C]-orotate to UMP” value ([4]; FIG. 10, concentration not stated) was 80%, the “effect on OPRTase/ODCase activity (conversion of [14C]-orotate to UMP)” value ([4]; cell free extract) was “inhibits” and the IC50 ([4]; corn root cell free extract, read-out: concentration at which there is 50% inhibition of UMP synthesis (IC50)) was under 270 µM. The whole plant injury [5] was “does not cause whole plant injury” and the Ki [6] was 18 µM.

— patent US20020058244A1, “Method for detecting uracil biosynthesis inhibitors and their use as herbicides” (priority 2000, published 2002)
